Measured values as given in US9394297B2, “Amides as pim inhibitors” (AMGEN INC., priority 2012, dated 2016).
Like-named read-outs stand apart in the source and are kept apart here.

How the values were obtained:
Pim-1 = Pim-1 (Homo sapiens (Human), UniProt P11309); assay: Pim-Mn enzyme assay (HTRF, 384-well), Pim-1; assay type: biochemical; conditions: Pim-1 enzyme 5 pM, ATP 1.5 μM, BAD (S112) 0.5 μM, HTRF, 22-point curve; read-out: Pim-1-Mn IC50 IP
Pim-2 = Pim-2 (Homo sapiens (Human), UniProt Q9P1W9); assay: Pim-Mn enzyme assay (HTRF, 384-well), Pim-2; assay type: biochemical; conditions: Pim-2 enzyme 0.5 pM, ATP 1.5 μM, BAD (S112) 0.5 μM, HTRF, 22-point curve; read-out: Pim-2-Mn IC50 IP
Chain of Pim-2 (Q9P1W9 whole entry): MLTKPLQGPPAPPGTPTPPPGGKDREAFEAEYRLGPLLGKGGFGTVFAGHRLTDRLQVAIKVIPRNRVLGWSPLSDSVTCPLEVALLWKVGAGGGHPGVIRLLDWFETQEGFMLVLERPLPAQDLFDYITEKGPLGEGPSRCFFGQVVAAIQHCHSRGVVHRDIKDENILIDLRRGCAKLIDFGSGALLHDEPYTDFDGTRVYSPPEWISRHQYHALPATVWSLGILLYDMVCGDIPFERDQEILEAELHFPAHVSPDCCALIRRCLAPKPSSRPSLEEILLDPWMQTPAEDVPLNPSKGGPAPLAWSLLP

[1] = system: KMS-12-BM myeloma cell line; assay: Pim KMS-12 cell assay (phospho-BAD S112 / total BAD, MSD)
KMS-12-BM cell lines = assay: KMS12 #2 flow cytometry assay (phospho-BAD Ser112); assay type: cell-based; conditions: Homo sapiens, 110 min; KMS-12-BM cells, pBAD Ser112 by flow cytometry, 110 min with compound; read-out: KMS-12-Flow IC50 IP
[2] = Homo sapiens, KMS-12-BM, read-out: KMS-12-BM IC50 IP, KMS-12-BM cells, phospho-BAD (S112) vs total BAD, 1 hour 50 min with compound
[3] = read-out: KMS-12-BM IC50 IP, KMS-12-BM cells, phospho-BAD (S112) vs total BAD, 1 hour 50 min with compound

Chain of Pim-1 (P11309 whole entry): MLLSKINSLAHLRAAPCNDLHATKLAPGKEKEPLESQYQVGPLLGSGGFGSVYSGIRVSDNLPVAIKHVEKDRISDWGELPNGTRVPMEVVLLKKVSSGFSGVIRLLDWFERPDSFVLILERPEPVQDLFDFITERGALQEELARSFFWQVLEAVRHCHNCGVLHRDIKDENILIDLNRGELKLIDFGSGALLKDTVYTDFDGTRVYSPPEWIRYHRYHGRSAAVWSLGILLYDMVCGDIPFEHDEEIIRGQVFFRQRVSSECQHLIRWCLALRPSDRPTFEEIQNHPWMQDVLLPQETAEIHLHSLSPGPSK

| Compound | IC50 (Pim-1) | IC50 (Pim-2) | IC50 [1, 2] | also measured |
| --- | --- | --- | --- | --- |
| Cc1cc2cccc(-c3cc4c([nH]3)CCNC4=O)c2nc1Oc1ccccc1 [Example 104, 2-(3-methyl-2-phenoxyquinolin-8-yl)-6,7-dihydro-1H-pyrrolo[3,2-c]pyridin-4(5H)-one] | – | – | 5.23 µM | – |
| Cc1nc2cccc(-c3cc4c([nH]3)C3(CC3)CNC4=O)c2nc1NC1CC1 [Example 77, 2′-(3-(cyclopropylamino)-2-methyl-5-quinoxalinyl)-5′,6′-dihydrospiro[cyclopropane-1,7′-pyrrolo[3,2-c]pyridin]-4′(1′H)-one] | 0.0016 µM | 0.0038 µM | – | IC50 ([1]; Homo sapiens, KMS-12-BM, read-out: KMS-12-BM IC50 IP): 0.494 µM |
| CC(c1ccccc1)c1ccc2cccc(-c3cc4c([nH]3)CCNC4=O)c2n1 (single isomer, unassigned) [Example 116, 2-(2-(1-phenylethyl)quinolin-8-yl)-6,7-dihydro-1H-pyrrolo[3,2-c]pyridin-4(5H)-one] | – | – | 7.54 µM | – |
| Cc1nc2cccc(-c3cc4c([nH]3)CCNC4=O)c2nc1N[C@H]1CCCNC1 [Example 76, (S)-2-(2-methyl-3-(piperidin-3-ylamino)quinoxalin-5-yl)-6,7-dihydro-1H-pyrrolo[3,2-c]pyridin-4(5H)-one] | 0.0081 µM | 0.027 µM | 6.13 µM | – |
| CC1CNC(=O)c2cc(-c3cccc4ccc(Nc5ccccc5)nc34)[nH]c21 (single isomer, unassigned) [Example 29, 7-methyl-2-(2-(phenylamino)quinolin-8-yl)-6,7-dihydro-1H-pyrrolo[3,2-c]pyridin-4(5H)-one] | – | – | – | IC50 [1, 3]: 0.737 µM |
| O=C1NCCc2[nH]c(-c3cccc4ccc(N[C@H]5CC[C@H](O)CC5)nc34)cc21 [Example 82, 2-(2-(((1R,4R)-4-hydroxycyclohexyl)amino)quinolin-8-yl)-6,7-dihydro-1H-pyrrolo[3,2-c]pyridin-4(5H)-one] | – | – | 4.62 µM | – |
| CC1CNC(=O)c2cc(-c3cccc4ccc(Nc5ccccc5)nc34)[nH]c21 (single isomer, unassigned) [Example 30, 7-methyl-2-(2-(phenylamino)quinolin-8-yl)-6,7-dihydro-1H-pyrrolo[3,2-c]pyridin-4(5H)-one] | – | – | – | IC50 [1, 3]: 5.89 µM |
| CC(C)(C)Nc1nc2c(-c3cc4c([nH]3)CCNC4=O)cccc2nc1C=O [Example 282, 3-(tert-butylamino)-5-(4-oxo-4,5,6,7-tetrahydro-1H-pyrrolo[3,2-c]pyridin-2-yl)-2-quinoxalinecarbaldehyde] | 0.0053 µM | – | 3.44 µM | – |
| CC[C@@H]1CNC(=O)c2cc(-c3cccc4ccc(Nc5ccccc5)nc34)[nH]c21 [Example 25, (R)-7-ethyl-2-(2-(phenylamino)quinolin-8-yl)-6,7-dihydro-1H-pyrrolo[3,2-c]pyridin-4(5H)-one] | – | – | 4.56 µM | – |
| Cc1nc2cccc(-c3cc4c([nH]3)CCNC4=O)c2nc1NC(C)(C)C(N)=O [Example 62, 2-methyl-N-2-(3-methyl-8-(4-oxo-4,5,6,7-tetrahydro-1H-pyrrolo[3,2-c]pyridin-2-yl)-2-quinoxalinyl)alaninamide] | – | – | 2.61 µM | – |
| CC[C@H]1CNC(=O)c2cc(-c3cccc4ccc(Nc5ccccc5)nc34)[nH]c21 [Example 239, (S)-7-ethyl-2-(2-(phenylamino)quinolin-8-yl)-6,7-dihydro-1H-pyrrolo[3,2-c]pyridin-4(5H)-one] | – | – | 1.85 µM | – |
| Cc1nc2cccc(-c3cc4c([nH]3)CCNC4=O)c2nc1NC1CCCOC1 (single isomer, unassigned) [Example 209, 2-(2-methyl-3-((tetrahydro-2H-pyran-3-yl)amino)quinoxalin-5-yl)-6,7-dihydro-1H-pyrrolo[3,2-c]pyridin-4(5H)-one] | – | – | – | IC50 [1, 3]: 0.268 µM |
| Cc1nc2cccc(-c3cc4c([nH]3)C(C)N(C(=O)OC(C)(C)C)C4=O)c2nc1NC(C)(C)C (centres unmarked) [Example 316, tert-butyl 2-(3-(tert-butylamino)-2-methylquinoxalin-5-yl)-6-methyl-4-oxo-4,6-dihydropyrrolo[3,4-b]pyrrole-5(1H)-carboxylate] | 0.036 µM | 0.075 µM | – | IC50 (KMS-12-BM cell lines): 21.5 µM |
| Cc1nc2cccc(-c3cc4c([nH]3)CCNC4=O)c2nc1-c1nccn1C [Example 432, 2-(2-Methyl-3-(1-methyl-1H-imidazol-2-yl)quinoxalin-5-yl)-6,7-dihydro-1H-pyrrolo[3,2-c]pyridin-4(5H)-one] | 0.413 µM | 0.244 µM | – | IC50 (KMS-12-BM cell lines): > 40 µM |
| CC(C)(C)Nc1ncc2cccc(-c3cc4c([nH]3)CCNC4=O)c2n1 [Example 374, 2-(2-(tert-butylamino)quinazolin-8-yl)-6,7-dihydro-1H-pyrrolo[3,2-c]pyridin-4(5H)-one] | 0.00254 µM | 0.00362 µM | – | IC50 (KMS-12-BM cell lines): 0.769 µM |
| Cc1nc2cccc(-c3cc4c([nH]3)CCNC4=O)c2nc1CC(C)(C)C [Example 272, 2-(3-(2,2-dimethylpropyl)-2-methyl-5-quinoxalinyl)-1,5,6,7-tetrahydro-4H-pyrrolo[3,2-c]pyridin-4-one] | – | 0.0078 µM | 1.53 µM | – |
| Cc1nc2cccc(-c3cc4c([nH]3)[C@@H](C)NC4=O)c2nc1O[C@@H](C)C(F)(F)F [Example 452, (6R)-6-methyl-2-(2-methyl-3-((1S)-2,2,2-trifluoro-1-methylethoxy)-5-quinoxalinyl)-5,6-dihydropyrrolo[3,4-b]pyrrol-4(1H)-one] | 0.0216 µM | 0.0325 µM | – | IC50 (KMS-12-BM cell lines): 3.19 µM |

More lines, in order of falling IC50 [1, 2], values ahead:

| IC50 (Pim-1) | IC50 (Pim-2) | IC50 [1, 2] | Compound | also measured |
| --- | --- | --- | --- | --- |
| – | – | 1.51 µM | O=C1NCCc2[nH]c(-c3cccc4ccc(Nc5c(F)cccc5F)nc34)cc21 [Example 175, 2-(2-((2,6-difluorophenyl)amino)quinolin-8-yl)-6,7-dihydro-1H-pyrrolo[3,2-c]pyridin-4(5H)-one] | – |
| – | – | 1.41 µM | CCC1CNC(=O)c2cc(-c3cccc4ccc(Nc5ccccc5)nc34)[nH]c21 (racemic) [Example 24, rac-7-ethyl-2-(2-(phenylamino)quinolin-8-yl)-6,7-dihydro-1H-pyrrolo[3,2-c]pyridin-4(5H)-one] | – |
| – | – | 1.28 µM | CC1CNC(=O)c2cc(-c3cccc4ccc(Nc5ccccc5)nc34)[nH]c21 (racemic) [Example 238, rac-7-methyl-2-(2-(phenylamino)quinolin-8-yl)-6,7-dihydro-1H-pyrrolo[3,2-c]pyridin-4(5H)-one] | – |
| – | – | 1.24 µM | Cc1nc2cccc(-c3cc4c([nH]3)CCNC4=O)c2nc1N[C@H]1CCC[C@@H](N)C1 (single isomer, unassigned) [Example 140, 2-(3-((cis-3-aminocyclohexyl)amino)-2-methylquinoxalin-5-yl)-6,7-dihydro-1H-pyrrolo[3,2-c]pyridin-4(5H)-one] | – |
| 0.036 µM | 0.0174 µM | 1.09 µM | Cc1nc2cccc(-c3cc4c([nH]3)CCNC4=O)c2nc1N [Example 218, 2-(3-amino-2-methylquinoxalin-5-yl)-6,7-dihydro-1H-pyrrolo[3,2-c]pyridin-4(5H)-one] | – |
| 0.0051 µM | 0.0058 µM | 0.907 µM | Cc1nc2cccc(-c3cc4c(=O)[nH]cnc4[nH]3)c2nc1NC(C)(C)CO [Example 263, 6-(3-((1-hydroxy-2-methylpropan-2-yl)amino)-2-methylquinoxalin-5-yl)-3H-pyrrolo[2,3-d]pyrimidin-4(7H)-one] | – |
| – | – | 0.366 µM | Cc1nc2cccc(-c3cc4c([nH]3)CCNC4=O)c2nc1NC1CCCOC1 (single isomer, unassigned) [Example 208, 2-(2-methyl-3-((tetrahydro-2H-pyran-3-yl)amino)quinoxalin-5-yl)-6,7-dihydro-1H-pyrrolo[3,2-c]pyridin-4(5H)-one] | – |
| 0.0059 µM | 0.0035 µM | 0.336 µM | Cc1nc2cccc(-c3cc4n(c3)CCNC4=O)c2nc1NC(C)(C)C [Example 174, 7-(3-(tert-butylamino)-2-methylquinoxalin-5-yl)-3,4-dihydropyrrolo[1,2-a]pyrazin-1(2H)-one] | – |
| – | – | 0.307 µM | Cc1nc2cccc(-c3cc4c([nH]3)CCNC4=O)c2nc1NC1CCCOC1 (racemic) [Example 198, rac-2-(2-methyl-3-((tetrahydro-2H-pyran-3-yl)amino)quinoxalin-5-yl)-6,7-dihydro-1H-pyrrolo[3,2-c]pyridin-4(5H)-one] | – |
| – | – | 0.252 µM | Cc1nc2cccc(-c3cc4c([nH]3)CCNC4=O)c2nc1NC(C)(C)CCO [Example 279, 2-(3-((3-hydroxy-1,1-dimethylpropyl)amino)-2-methyl-5-quinoxalinyl)-1,5,6,7-tetrahydro-4H-pyrrolo[3,2-c]pyridin-4-one] | – |
| – | – | 0.225 µM | CC1(C)CCCN1c1cnc2cccc(-c3cc4c([nH]3)CCNC4=O)c2n1 [Example 216] | – |
| – | – | 0.209 µM | Nc1nc2cccc(-c3cc4c([nH]3)CCNC4=O)c2nc1Oc1ccccc1 [Example 36, 2-(2-amino-3-phenoxyquinoxalin-5-yl)-6,7-dihydro-1H-pyrrolo[3,2-c]pyridin-4(5H)-one] | – |
| 0.00134 µM | 0.000961 µM | 0.144 µM | Cc1nc2cccc(-c3cc4n(c3)CCNC4=O)c2nc1NC1(C)CC1 [Example 100, 7-(2-methyl-3-((1-methylcyclopropyl)amino)quinoxalin-5-yl)-3,4-dihydropyrrolo[1,2-a]pyrazin-1(2H)-one 2,2,2-trifluoroacetate] | – |
| – | – | 0.107 µM | Cc1nc2cccc(-c3cc4c([nH]3)CCNC4=O)c2nc1NC(C)C(C)C (racemic) [Example 73, 2-(3-4(±)-1,2-dimethylpropyl)amino)-2-methyl-5-quinoxalinyl)-1,5,6,7-tetrahydro-4H-pyrrolo[3,2-c]pyridin-4-one] | – |
